Test results published in US11339161B2, “Triazolo pyridines as modulators of gamma-secretase” (Boehringer Ingelheim International GmbH, priority 2017, dated 2022).
Where two headings read alike, the source gives them in different places.

Assays:
[1] = target: RPS6KB1 (p70S6K) (Homo sapiens, UniProt P23443); assay: Z'-LYTE SelectScreen biochemical kinase assay RPS6KB1 (p70S6K)
Text: Thermo Fisher Scientific SelectScreen™ Biochemical Kinase Profiling Service Z′-LYTE™ Screening Protocol and Assay Conditions Assay Theory
The […] biochemical assay employs a fluorescence-based, coupled-enzyme format and is based on the differential sensitivity of phosphorylated and non-phosphorylated peptides to proteolytic cleavage. The peptide substrate is labeled with two fluorophores—one at each end—that make up a FRET pair. In the primary reaction, the kinase transfers the gamma-phosphate of ATP to a single tyrosine, serine or threonine residue in a synthetic FRET-peptide. In the secondary reaction, a site-specific protease recognizes and cleaves non-phosphorylated FRET-peptides. Phosphorylation of FRET-peptides suppresses cleavage by the Development Reagent. Cleavage disrupts FRET between the donor (i.e., coumarin) and acceptor (i.e., fluorescein) fluorophores on the FRET-peptide, whereas uncleaved, phosphorylated FRET-peptides maintain FRET. A ratiometric method, which calculates the ratio (Emission Ratio=Coumarin emission (445 nm)/Fluorescein emission (520 nm)) of donor emission to acceptor emission after excitation of the donor fluorophore at 400 nm, is used to quantitate reaction progress, as shown in the equation below. A significant benefit of this ratiometric method for quantitating reaction progress is the elimination of well-to-well variations in FRET-peptide concentration and signal intensities. As a result, the assay yields very high Z′-factor values (>0.7) at a low percent phosphorylation. Both cleaved and uncleaved FRET-peptides contribute to the fluorescence signals and therefore to the Emission Ratio. The extent of phosphorylation of the FRET-peptide can be calculated from the Emission Ratio. The Emission Ratio will remain low if the FRET-peptide is phosphorylated (i.e., no kinase inhibition) and will be high if the FRET-peptide is non-phosphorylated (i.e., kinase inhibition).
The Test Compounds are screened in 1% DMSO (final) in the well. For 10 point titrations, 3-fold serial dilutions are conducted from the starting concentration of the customer's choosing.
All Peptide/Kinase Mixtures are diluted to a 2× working concentration in the appropriate Kinase Buffer (see section Kinase Specific Assay Conditions for a complete description).
All ATP Solutions are diluted to a 4× working concentration in Kinase Buffer (50 mM HEPES pH 7.5, 0.01% BRIJ-35, 10 mM MgCl2, 1 mM EGTA). ATP Km apparent is previously determined using a Z″-LYTE assay.
The Development Reagent is diluted in Development Buffer (see section Kinase-Specific Assay Conditions—Direct and Cascade for a complete description).
Bar-coded Corning, low volume NBS, black 384-well plate (Corning Cat. #4514) • 1. 100 nL—100× Test Compound in 100% DMSO • 2. 2.4 μL—Kinase buffer • 3. 5 μL—2× Peptide/Kinase Mixture • 4. 2.5 μL—4×ATP Solution • 5. 30—second plate shake • 6. 60—minute Kinase Reaction incubation at room temperature • 7. 5 μL—Development Reagent Solution • 8. 30—second plate shake • 9. 60—minute Development Reaction incubation at room temperature • 10. Read on fluorescence plate reader and analyze the data Z′-LYTE Assay Controls
SelectScreen Kinase Profiling Service uses XLfit from IDBS. The dose response curve is curve fit to model number 205 (sigmoidal dose-response model).
The 2×RPS6 KB1 (p70S6K)/Ser/Thr 07 mixture is prepared in 50 mM HEPES pH 7.5, 0.01% BRIJ-35, 10 mM MgCl2, 1 mM EGTA. The final 10 μL Kinase Reaction consists of 2.87-17.7 ng RPS6 KB1 (p70S6K) and 2 μM Ser/Thr 07 in 50 mM HEPES pH 7.5, 0.01% BRIJ-35, 10 mM MgCl2, 1 mM EGTA. After the 1 hour Kinase Reaction incubation, 5 μL of a 1:45000 dilution of Development Reagent A is added.

[2] = test system: panel of 15 kinases; assay: Z'-LYTE SelectScreen kinase panel: number of kinases with <40% inhibition; format: biochemical; details: of 15 kinases tested; 10 μmolar compound; ATP at Km app
[3] = test system: Aβ total; assay: Aβ total levels in H4 neuroglioma cells stably expressing human APP695 (MSD electrochemiluminescence); format: cell-based; details: selectivity ratio vs. Aβtotal, Table 4a
Procedure: Cells were plated out to near confluency. The compounds to be tested were received as 10 mM stocks in 100% DMSO. A dilution series was initially generated in 100% DMSO and then diluted 200-fold in cell culture media such that the tested concentration range was 30 μM to 0.1 nM and the final DMSO concentration was 0.5%. The diluted compounds were incubated with the cells for 22 hours in an incubator at 37° C. and 5% CO2. Aβ42 levels were measured post-incubation from the supernatant of the cells using an Aβ42 specific electrochemiluminescence assay provided by Meso Scale Discovery (Catalog #L21CA-1). The measurement of Aβ42 levels were performed according to the manufacturer's protocol.
Aβ total levels were likewise determined using a specific electrochemiluminescence assay provided by Meso Scale Discovery (Catalog #L21ZA-1) according to the manufacturer's protocol.

[4] = test system: kinases; assay: Z'-LYTE SelectScreen kinase panel: number of kinases with <40% inhibition out of 15 tested; format: biochemical; details: 10 μmolar (10000 nM) compound; [ATP] Km app; 15 kinases tested
[5] = 10 μmolar compound concentration, ATP at Km app, read-out: RPS6KB1 (p70S6K) inhibition
[6] = read-out: % Inhibition mean RPS6KB1 (p70S6K)

Chain of RPS6KB1 (p70S6K) (P23443 whole entry): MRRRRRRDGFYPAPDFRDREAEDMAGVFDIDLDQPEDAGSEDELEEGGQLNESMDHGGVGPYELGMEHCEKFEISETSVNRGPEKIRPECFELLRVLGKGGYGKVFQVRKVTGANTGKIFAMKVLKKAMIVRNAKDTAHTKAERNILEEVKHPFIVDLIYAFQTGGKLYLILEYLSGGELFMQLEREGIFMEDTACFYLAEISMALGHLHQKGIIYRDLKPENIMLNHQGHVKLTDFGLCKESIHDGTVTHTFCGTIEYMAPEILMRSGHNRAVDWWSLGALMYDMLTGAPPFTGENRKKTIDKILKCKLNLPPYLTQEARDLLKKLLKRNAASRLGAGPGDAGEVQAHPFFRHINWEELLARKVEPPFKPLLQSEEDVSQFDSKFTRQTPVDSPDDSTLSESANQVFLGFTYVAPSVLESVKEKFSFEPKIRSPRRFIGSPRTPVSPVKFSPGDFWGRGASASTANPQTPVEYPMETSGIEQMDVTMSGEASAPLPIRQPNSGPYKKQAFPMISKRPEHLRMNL

Row | Compound | inhibition at 10 µM [1, 5] | inhibition at 10 µM [1, 6] | No. of kinases with <40% inhibition [2] | Ratio AβTotal IC50/Aβ42 IC50 [3] | No. of kinases with <40% inhibition [4]
1 | CCn1ncc2c1CCC(Nc1nc3c(-c4ccc(OC)nc4)cccn3n1)C2 (stereo not drawn) [Example 71, (1-Ethyl-4,5,6,7-tetrahydro-1H-indazol-5-yl)-[8-(6-methoxy-pyridin-3-yl)-[1,2,4]triazolo[1,5-a]pyridine-2-yl]-amine] | < 40% | 23% | 11/15 | 332 | 
2 | CCn1ncc2c1CCC(Nc1nc3c(-c4cccc(Cl)c4)cccn3n1)C2 (stereo not drawn) [Example 59, [8-(3-Chloro-phenyl)-[1,2,4]triazolo[1,5-a]pyridine-2-yl]-(1-ethyl-4,5,6,7-tetrahydro-1H-indazol-5-yl)-amine] | < 40% | 6% | 13/15 | 49 | 
3 | CCn1ncc2c1CCC(Nc1nc3c(-c4cncc(OC)c4)cccn3n1)C2 (stereo not drawn) [Example 70, (1-Ethyl-4,5,6,7-tetrahydro-1H-indazol-5-yl)-[8-(5-methoxy-pyridin-3-yl)-[1,2,4]triazolo[1,5-a]pyridine-2-yl]-amine] | < 40% | -3% | 11/15 | 60 | 
4 | CCn1ncc2c1CCC(Nc1nc3c(-c4ccccc4)cccn3n1)C2 (stereo not drawn) [Example 57, (1-Ethyl-4,5,6,7-tetrahydro-1H-indazol-5-yl)-(8-phenyl-[1,2,4]triazolo[1,5-a]pyridine-2-yl)-amine] | < 40% |  |  | 104 | 12/15
5 | CCCn1ncc2c1CCC(Nc1nc3c(-c4ccc(F)cc4C)cccn3n1)C2 (stereo not drawn) [Example 43, [8-(4-fluoro-2-methyl-phenyl)-[1,2,4]triazolo[1,5-a]pyridine-2-yl]-(1-propyl-4,5,6,7-tetrahydro-1H-indazol-5-yl)-amine] | < 40% | 3% |  | 48 | 14/15
6 | Cc1cc(F)ccc1-c1cccn2nc(NC3CCc4c(cnn4C(C)C)C3)nc12 (stereo not drawn) [Example 44, [8-(4-fluoro-2-methyl-phenyl)-[1,2,4]triazolo[1,5-a]pyridine-2-yl]-(1-isopropyl-4,5,6,7-tetrahydro-1H-indazol-5-yl)-amine] | < 40% | 12% |  | 64 | 13/15
7 | CCc1nn(C)c2c1CCC(Nc1nc3c(-c4ccc(F)cc4C)cccn3n1)C2 (stereo not drawn) [Example 54, (3-Ethyl-1-methyl-4,5,6,7-tetrahydro-1H-indazol-6-yl)-[8-(4-fluoro-2-methyl-phenyl)-[1,2,4]triazolo[1,5-a]pyridine-2-yl]-amine] | < 40% | 1% |  | 10 | 15/15
8 | CCn1nnc2c1CCC(Nc1nc3c(-c4ccc(F)cc4C)cccn3n1)C2 (stereo not drawn) [Example 51, (1-Ethyl-4,5,6,7-tetrahydro-1H-benzotriazol-5-yl)-[8-(4-fluoro-2-methyl-phenyl)-[1,2,4]triazolo[1,5-a]pyridine-2-yl]-amine] | < 40% | 1% |  | 2 | 15/15
9 | CCn1ncc2c1CC[C@@H](Nc1nc3c(-c4ccc(F)c(Cl)c4)cccn3n1)C2 [Example R-61, (R)-[8-(3-Chloro-4-fluoro-phenyl)-[1,2,4]triazolo[1,5-a]pyridine-2-yl]-(1-ethyl-4,5,6,7-tetrahydro-1H-indazol-5-yl)-amine] | < 40% | 3% | 15/15 | 1098 | 
10 | CCn1ncc2c1CCC(Nc1nc3c(-c4ccccc4C)cccn3n1)C2 (stereo not drawn) [Example 56, (1-Ethyl-4,5,6,7-tetrahydro-1H-indazol-5-yl)-[8-(2-methyl-phenyl)-[1,2,4]triazolo[1,5-a]pyridine-2-yl]-amine] | < 40% | 1% |  | 49 | 12/15
11 | CCn1ncc2c1CCC(Nc1nc3c(-c4cnccc4OC)cccn3n1)C2 (stereo not drawn) [Example 68, (1-Ethyl-4,5,6,7-tetrahydro-1H-indazol-5-yl)-[8-(4-methoxy-pyridin-3-yl)-[1,2,4]triazolo[1,5-a]pyridine-2-yl]-amine] | < 40% | 17% | 11/15 | 241 | 
12 | CCn1ncc2c1CCC(Nc1nc3c(-c4ccc(C)nc4)cccn3n1)C2 (stereo not drawn) [Example 67, (1-Ethyl-4,5,6,7-tetrahydro-1H-indazol-5-yl)-[8-(6-methyl-pyridin-3-yl)-[1,2,4]triazolo[1,5-a]pyridine-2-yl]-amine] | < 40% | 23% | 14/15 | 45 | 
13 | CCn1ncc2c1CCC(Nc1nc3c(-c4cncc(Cl)c4)cccn3n1)C2 (stereo not drawn) [Example 73, [8-(5-Chloro-pyridin-3-yl)-[1,2,4]triazolo[1,5-a]pyridine-2-yl]-(1-ethyl-4,5,6,7-tetrahydro-1H-indazol-5-yl)-amine] | < 40% | 24% | 8/15 | 420 | 
14 | CCn1ncc2c1CCC(Nc1nc3c(-c4cccnc4)cccn3n1)C2 (stereo not drawn) [Example 63, (1-Ethyl-4,5,6,7-tetrahydro-1H-indazol-5-yl)-(8-pyridin-3-yl-[1,2,4]triazolo[1,5-a]pyridine-2-yl)-amine] | < 40% | 3% | 12/15 | 85 | 
15 | CCn1ncc2c1CC[C@H](Nc1nc3c(-c4ccc(F)c(Cl)c4)cccn3n1)C2 [Example S-61, (S)-[8-(3-Chloro-4-fluoro-phenyl)-[1,2,4]triazolo[1,5-a]pyridine-2-yl]-(1-ethyl-4,5,6,7-tetrahydro-1H-indazol-5-yl)-amine] | < 40% | 22% | 15/15 | 42 | 
16 | CCn1ncc2c1CCC(Nc1nc3c(-c4ccc(F)cc4C)cccn3n1)C2 (stereo not drawn) [Example 42, (1-Ethyl-4,5,6,7-tetrahydro-1H-indazol-5-yl)-[8-(4-fluoro-2-methyl-phenyl)-[1,2,4]triazolo[1,5-a]pyridine-2-yl]-amine] | < 40% | 6% |  | 23 | 15/15
